Measurements taken from patent US8211897B2, “Inhibitors of cathepsin B” (ViroBay, Inc., priority 2008, dated 2012).
pIC50: −log10 of the molar value.

What was measured:
[1] = target: T1, Human Liver Cathepsin B (Homo sapiens, UniProt P07858); assay: Biochemical assay of inhibition of Cathepsin B enzymatic activity; settings: 20 uM Boc-Leu-Arg-Arg-AMC, pH 5.5, 15 minutes preincubation, 30 minutes at 25° C.
T1 construct: from tissue; host or cells: human liver
Procedure: The test compound of Formula (I) was dissolved in dimethylsulfoxide (DMSO) and diluted in assay buffer. An 8 point dose response curve was completed in order to evaluate the IC50 value of inhibition of Cathepsin B enzymatic activity (IC50 is defined as the concentration which inhibited 50% of maximal enzyme activity). The assay protocol was adapted from Barrett, 1980. Human Liver Cathepsin B was incubated in assay buffer (50 mM sodium acetate, pH 5.5, 1 mM dithiothreitol (DTT), 2 mM ethylenediaminetetraacetic acid (EDTA) with 20 uM peptide substrate (Boc-Leu-Arg-Arg-AMC) with the compounds diluted from DMSO stocks or DMSO vehicle alone. Final DMSO concentration was retained at 1% in the assay. The test compound was preincubated with the enzyme for 15 minutes at 25° C. Reaction was started with the addition of substrate, and allowed to proceed for 30 minutes at 25° C. Substrate cleavage was monitored with spectrofluorimetric quantitation of methylcoumarylamide (AMC).

[2] = target: T2, Cathepsin B in human cells (HUVECs) (Homo sapiens, UniProt P07858); assay: Cellular activity-based probe (whole-cell enzyme occupancy) assay; settings: serum-free media, 4 hours compound treatment, 125I-DMK probe 1 hour
T2 construct: endogenous in cells; host or cells: HUVEC (human umbilical vein endothelial cells)
Procedure: Activity of Cathepsin B in cells was measured with the use of an activity-based radioactive probe in a whole-cell enzyme occupancy assay. This method was used to determine the specific potencies of compounds on Cathepsin B in the intracellular environment. The probe used was a peptide diazomethylketone which binds to Cathepsins, including Cathepsin B, potently and irreversibly. This cell-permeable probe binds to active Cathepsin B and binding can be quantified to determine the level of Cathepsin B activity in cells. Cathepsin B enzyme in cells which has bound to an inhibitor is not active and as such not available for binding by the activity-based probe.
The method used was based on a modification of a published method (Falgueyret J-P, et al. 2004. Anal. Biochem. 335:218-227). Human umbilical vein endothelial cells (HUVECs) were grown in 24 well plates in standard growth conditions. […]
To analyze probe-labeled proteins, samples were boiled for 5 minutes and analyzed by SDS-PAGE. […] The band intensities on the autoradiographs were determined. Autoradiographs were scanned using a Microtek ScanMakeri900 scanner and bands quantified with a program such as the BioRad Imaging program QuantityOne or ImageJ. Compound potencies were calculated as a % of the no inhibitor control and IC50 values were extrapolated from the dose-response curves using a suitable program like GraphPad Prism.

[3] = tested on: Liver fibrosis induced in mice by carbon tetrachloride; assay: Carbon tetrachloride-induced liver fibrosis model; assay type: in vivo; settings: CCl4 fibrosis, once daily from day 12, 250 mg/kg and 50 mg/kg, terminal day 33
Procedure: Liver fibrosis was induced in mice by intraperitoneal administration of carbon tetrachloride every 5 days over a 28-day period (days 0-28). On day 11, plasma alanine aminotransferase (ALT) levels and aspertate aminotransferase (AST) were measured from representative mice to confirm liver damage. (2S,4R)-1-((S)-(3-tert-butylureido)-3,3-dimethylbutanoyl]-N-((S)-1-cyclopropylamino)-1,2-dioxohexan-3-yl)-4-(7-methoxy-2-(1H-pyrazol-1-yl)-quinolin-4-yloxy)pyrrolidine-2-carboxamide was administered therapeutically, once daily, starting on day 12, […]. On day 33, terminal plasma AST and ALT, liver hydroxyproline, PK/PD, and histology were assessed.

SMILES	pIC50 [1]	also measured
CCC[C@H](NC(=O)[C@@H]1CC(Oc2cc(-n3cccn3)nc3cc(OC)ccc23)CN1C(=O)[C@@H](NC(=O)NCC1CC1)C(C)(C)C)C(=O)C(=O)NC1CC1 (stereo partly shown)	7.08	
CCC[C@H](NC(=O)[C@@H]1C[C@@H](Oc2cc(-n3cccn3)nc3cc(OC)ccc23)CN1C(=O)[C@@H](NC(=O)NCC(C)(C)C)C(C)(C)C)C(=O)C(=O)NC1CC1 [(2S,4R)-N-((S)-1-(cyclopropylamino)-1,2-dioxohexan-3-yl)-1-((S)-3,3-dimethyl-2-(3-neopentylureido)butanoyl)-4-(7-methoxy-2-(1H-pyrazol-1-yl)quinolin-4-yloxy)pyrrolidine-2-carboxamide]	7.21	
CCC[C@H](NC(=O)[C@@H]1CC(Oc2cc(-n3cccn3)nc3cc(OC)ccc23)CN1C(=O)[C@@H](NC(=O)NC(C)(C)C)C(C)(C)C)C(=O)C(=O)NC1CC1 (stereo partly shown) [Example 1]	> 6.30	pIC50 [2]: 7.62; liver hydroxyproline [3]: decreased; plasma ALT [3]: decreased; plasma AST [3]: decreased
COc1ccc2c(O[C@@H]3C[C@@H](C(=O)N[C@@H](CC4CCC4)C(=O)C(=O)NC4CC4)N(C(=O)[C@@H](NC(=O)NC(C)(C)C)C(C)(C)C)C3)cc(-n3cccn3)nc2c1 [Example 2, (2S,4R)-1-((S)-(3-tert-butylureido)-3,3-dimethylbutanoyl]-N-((S)-1-cyclobutyl-4-(cyclopropylamino)-3,4-dioxobutan-2-yl)-4-(7-methoxy-2-(1H-pyrazol-1-yl)-quinolin-4-yloxy)pyrrolidine-2-carboxamide]	> 6.30	pIC50 [2]: 7.72; liver hydroxyproline [3]: reduces; plasma ALT [3]: reduces; plasma AST [3]: reduces
COc1ccc2c(O[C@@H]3C[C@@H](C(=O)N[C@@H](CC4CC4)C(=O)C(=O)NC4CC4)N(C(=O)[C@@H](NC(=O)NC(C)(C)C)C(C)(C)C)C3)nccc2c1 [Example 10, (2S,4R)-1-((S)-2-(3-tert-Butylureido)-3,3-dimethylbutanoyl)-N-((S)-1-cyclopropyl-4-(cyclopropylamino)-3,4-dioxobutan-2-yl)-4-(6-methoxyisoquinolin-1-yloxy)-pyrrolidine-2-carboxamide]	7.25	
CCOc1ccc2c(O[C@@H]3C[C@@H](C(=O)N[C@@H](CC4CC4)C(=O)C(=O)NC4CC4)N(C(=O)[C@@H](NC(=O)NC(C)(C)C)C(C)(C)C)C3)nccc2c1 [Example 11, (2S,4R)-1-((S)-2-(3-tert-Butylureido)-3,3-dimethylbutanoyl)-N-((S)-1-cyclopropyl-4-(cyclopropylamino)-3,4-dioxobutan-2-yl)-4-(6-ethoxyisoquinolin-1-yloxy)-pyrrolidine-2-carboxamide]	7.31	

More lines, main results first:

pIC50 [1]	SMILES	also measured
7.07	CCC[C@H](NC(=O)[C@@H]1CC(Oc2cc(-c3ccccn3)nc3ccsc23)CN1C(=O)[C@@H](NC(=O)NC(C)(C)C)C(C)(C)C)C(=O)C(=O)NC1CC1 (stereo partly shown)	
7.57	CCC[C@H](NC(=O)[C@@H]1C[C@@H](Oc2nccc3cc(OC)ccc23)CN1C(=O)[C@@H](NC(=O)NC(C)(C)C)C(C)(C)C)C(=O)C(=O)NC1CC1 [Example 9]	
7.35	CCC[C@H](NC(=O)[C@@H]1C[C@@H](Oc2nccc3cc(OCC)ccc23)CN1C(=O)[C@@H](NC(=O)NC(C)(C)C)C(C)(C)C)C(=O)C(=O)NC1CC1 [Example 12, (2S,4R)-1-((S)-2-(3-tert-Butylureido)-3,3-dimethylbutanoyl)-N-((S)-1-(cyclopropylamino)-1,2-dioxohexan-3-yl)-4-(6-ethoxyisoquinolin-1-yloxy)-pyrrolidine-2-carboxamide]	
7.55	CCCC[C@H](NC(=O)[C@@H]1CC(Oc2nccc3cc(OC)ccc23)CN1C(=O)[C@@H](NC(=O)NC(C)(C)C)C(C)(C)C)C(=O)C(=O)NC1CC1 (stereo partly shown) [Example 13]	
7.49	CCC[C@H](NC(=O)[C@@H]1C[C@@H](Oc2nc(C)cc3cc(OC)ccc23)CN1C(=O)[C@@H](NC(=O)NC(C)(C)C)C(C)(C)C)C(=O)C(=O)NC1CC1 [Example 15, (2S,4R)-1-((S)-2-(3-tert-butylureido)-3,3-dimethylbutanoyl)-N-((S)-1-(cyclopropylamino)-1,2-dioxohexan-3-yl)-4-(6-methoxy-3-methylisoquinolin-1-yloxy)pyrrolidine-2-carboxamide]	
7.35	CCC[C@H](NC(=O)[C@@H]1C[C@@H](Oc2nc(-c3ccccn3)nc3sccc23)CN1C(=O)[C@@H](NC(=O)NC(C)(C)C)C(C)(C)C)C(=O)C(=O)NC1CC1 [Example 16, (2S,4R)-1-((S)-2-(3-tert-butylureido)-3,3-dimethylbutanoyl)-N-((S)-1-(cyclopropylamino)-1,2-dioxohexan-3-yl)-4-(2-(pyridin-2-yl)thieno[2,3-d]pyrimidin-4-yloxy)pyrrolidine-2-carboxamide]	
7.48	CCC[C@H](NC(=O)[C@@H]1C[C@@H](Oc2nc(-c3ccccn3)nc3ccsc23)CN1C(=O)[C@@H](NC(=O)NC(C)(C)C)C(C)(C)C)C(=O)C(=O)NC1CC1 [Example 17, (2S,4R)-1-((S)-2-(3-tert-butylureido)-3,3-dimethylbutanoyl)-N-((S)-1-(cyclopropylamino)-1,2-dioxohexan-3-yl)-4-(2-(pyridin-2-yl)thieno[3,2-d]pyrimidin-4-yloxy)pyrrolidine-2-carboxamide]	
7.14	CCC[C@H](NC(=O)[C@@H]1C[C@@H](Oc2nc(-c3cc(C)nn3C)nc3ccsc23)CN1C(=O)[C@@H](NC(=O)NC(C)(C)C)C(C)(C)C)C(=O)C(=O)NC1CC1 [Example 18, (2S,4R)-1-((S)-2-(3-tert-butylureido)-3,3-dimethylbutanoyl)-N-((S)-1-(cyclopropylamino)-1,2-dioxohexan-3-yl)-4-(2-(1,3-dimethyl-1H-pyrazol-5-yl)thieno[3,2-d]pyrimidin-4-yloxy)pyrrolidine-2-carboxamide]	
